Data on 10 molecules can be found in patent US4001218A, “Penicillins” (Bayer Aktiengesellschaft, priority 1972, dated 1977).

Molecules are shown by their SMILES.

For one test, the system named is E. coli 14. Format: cell-based. As to conditions: for MIC: E. coli 14, 24 hours, 37°C; for Activity against E. coli 14 (minimum inhibitory concentration): 24 hours' incubation.
The subject of a further test is E. coli A 261. In words: MIC, test tube series dilution test, E. coli A 261. In kind it is cell-based. As to conditions: 24 hours, 37°C.
The subject of another test is Proteus vulg. 1017. Format: cell-based, Proteus vulgaris. As to conditions: for MIC: Proteus 1017, 24 hours, 37°C.
The subject of the next test is Psdm. aerug. Walter. In words: MIC, test tube series dilution test, Psdm. aerug. Walter. Format: cell-based, Pseudomonas aeruginosa. As to conditions: for MIC: Psdm. aerug. Walter, 24 hours, 37°C; for Activity against Psdm. aerug. Walter (minimum inhibitory concentration): 24 hours' incubation.
The test system of another test is Staph. aureus 1756. Nature of the test: MIC, test tube series dilution test, Staph. aureus 1756. In kind it is cell-based, Staphylococcus aureus. As to conditions: for MIC: Staph. aureus 1756, 24 hours, 37°C.
The next test has as its system Staph. aureus 133. Format: cell-based, Staphylococcus aureus. As to conditions: Staph. aureus 133; 24 hours, 37°C.
Another test deals with Enterococcus 9790. In words: MIC, test tube series dilution test, Enterococcus 9790. Format: cell-based. As to conditions: 24 hours, 37°C.
Another test relates to Klebsiella K 10. In words: MIC, test tube series dilution test, Klebsiella K 10. In kind it is cell-based. As to conditions: 24 hours, 37°C.
Another test deals with E. coli C 165. In words: MIC, test tube series dilution test, E. coli C 165. In kind it is cell-based. As to conditions: 24 hours, 37°C.
A further test deals with Psdm. aerug. F 41. In words: MIC, test tube series dilution test, Psdm. aerug. F 41. Format: cell-based, Pseudomonas aeruginosa. As to conditions: Psdm. aerug. F 41; 24 hours, 37°C.
A further test has as its system Klebsiella 63. Nature of the test: MIC, test tube series dilution test, Klebsiella 63. In kind it is cell-based. As to conditions: for Activity against Klebs. 63 (minimum inhibitory concentration): 24 hours' incubation.
The next test deals with Proteus morg. 932. Nature of the test: MIC, test tube series dilution test, Proteus morg. 932. In kind it is cell-based. As to conditions: 24 hours, 37°C.

`CC1(C)S[C@@H]2[C@H](NC(=O)[C@H](NC(=O)c3ccc(NC(=O)c4cc(Cl)cc(Cl)c4)cc3)c3ccccc3)C(=O)N2[C@H]1C(=O)O` [Example 20]: the MIC is under 1 U/ml in the test with E. coli 14; ~ 256 U/ml with E. coli A 261; ~ 4 U/ml in the test on Proteus vulg. 1017; ~ 4 U/ml with Psdm. aerug. Walter; ~ 4 U/ml in the test with Staph. aureus 1756; under 1 U/ml with Staph. aureus 133. In addition, in the test on Enterococcus 9790, the MIC is ~ 4 U/ml.
On to `CC(C)(CN=[N+]=[N-])C(=O)Nc1ccc(C(=O)N[C@@H](C(=O)N[C@@H]2C(=O)N3[C@@H]2SC(C)(C)[C@@H]3C(=O)O)c2ccccc2)cc1` [Example 39], for which the results for the MIC against E. coli A 261, against Staph. aureus 1756 and in the test on Staph. aureus 133 were over 256 U/ml, ~ 64 U/ml and under 1 U/ml, respectively.
For `COCC(=O)Nc1ccc(C(=O)N[C@@H](C(=O)N[C@@H]2C(=O)N3[C@@H]2SC(C)(C)[C@@H]3C(=O)O)c2ccccc2)cc1` [Example 42], the MIC with Proteus vulg. 1017 is listed as over 256 U/ml; in the test with Klebsiella K 10 it was over 256 U/ml; with Staph. aureus 133, under 1 U/ml; against Enterococcus 9790, ~ 4 U/ml.
Consider `CC1(C)S[C@@H]2[C@H](NC(=O)[C@H](NC(=O)c3ccc(NC(=O)Nc4ccc(F)cc4)cc3)c3ccccc3)C(=O)N2[C@H]1C(=O)O` [Example 46], for which the MIC in the test with E. coli 14 is on record as under 1 U/ml; against E. coli C 165, ~ 4 U/ml; against Staph. aureus 133, under 1 U/ml; in the test with Enterococcus 9790, ~ 4 U/ml.
For the molecule `CC1(C)S[C@@H]2[C@H](NC(=O)[C@H](NC(=O)c3ccccc3NC(=O)C3CC3)c3ccccc3)C(=O)N2[C@H]1C(=O)O` [Example 49], the MIC against Psdm. aerug. F 41 is reported as under 256 U/ml; against Klebsiella K 10, over 256 U/ml; against Klebsiella 63 (Klebsiella 63, 24 hours, 37°C), over 256 U/ml; with Staph. aureus 133, under 1 U/ml.
For the molecule `CC1(C)S[C@@H]2[C@H](NC(=O)[C@H](NC(=O)c3ccccc3NC(=O)C3CCC3)c3ccccc3)C(=O)N2[C@H]1C(=O)O` [Example 50], the MIC with Klebsiella K 10 is listed as over 256 U/ml; in the test on Staph. aureus 133, under 1 U/ml.
In the same order, the values of `CC1(C)S[C@@H]2[C@H](NC(=O)[C@H](NC(=O)c3ccc(NC=O)c(NC=O)c3)c3ccccc3)C(=O)N2[C@H]1C(=O)O` [Example 74] are over 256 U/ml and under 1 U/ml.
As for `CC1(C)S[C@@H]2[C@H](NC(=O)[C@H](NC(=O)Cc3ccc(NC(=O)C4CCC4)cc3)c3ccccc3)C(=O)N2[C@H]1C(=O)O` [Example 76, sodium D(-)-α-[(4-cyclobutanecarbonylaminophenyl)-acetamido]-benzylpenicillin], the MIC in the test with E. coli 14 is under 4 U/ml; in the test on E. coli A 261 it was over 256 U/ml; against Proteus morg. 932, over 256 U/ml; with Psdm. aerug. F 41 it was over 256 U/ml; in the test on Psdm. aerug. Walter, over 256 U/ml; in the test on Staph. aureus 133, under 1 U/ml. Moreover, the MIC in the test with Enterococcus 9790 is reported as ~ 16 U/ml.
With `CC1(C)S[C@@H]2[C@H](NC(=O)[C@H](NC(=O)c3ccc(NC(=O)C4CCCC4)cc3O)c3ccccc3)C(=O)N2[C@H]1C(=O)O` [Example 77, sodium D(-)-α-(4-cyclopentanecarbonylamino-2-hydroxybenzoylamino)benzylpenicillin], the “Activity against E. coli 14 (minimum inhibitory concentration)” value in the test on E. coli 14 was 2-4 U/ml. Moreover, the “Activity against Psdm. aerug. Walter (minimum inhibitory concentration)” value in the test with Psdm. aerug. Walter is given as 8-16 U/ml. Moreover, in the test on Klebsiella 63, the “Activity against Klebs. 63 (minimum inhibitory concentration)” value is 32-64 U/ml. For the same molecule, the “Activity against Staph. aureus 1756 (minimum inhibitory concentration)” value in the test on Staph. aureus 1756 (24 hours' incubation) is 32-64 U/ml.
Regarding `COc1cc(C=CC(=O)Nc2ccc(C(=O)N[C@@H](C(=O)N[C@@H]3C(=O)N4[C@@H]3SC(C)(C)[C@@H]4C(=O)O)c3ccccc3)cc2)cc(OC)c1OC` [Example 78, sodium D(-)-α-[4-(3,4,5-trimethoxycinnamoylamino-benzoylamino)]-benzylpenicillin], the “Activity against E. coli 14 (minimum inhibitory concentration)” value in the test on E. coli 14 is listed as 2-4 U/ml. In the test with Proteus vulg. 1017 (24 hours' incubation), the “Activity against Proteus vulg. 1017 (minimum inhibitory concentration)” value is on record as 128-256 U/ml. Besides, the “Activity against Psdm. aerug. Walter (minimum inhibitory concentration)” value in the test on Psdm. aerug. Walter is recorded as 32-64 U/ml. The “Activity against Klebs. 63 (minimum inhibitory concentration)” value with Klebsiella 63 is 32-64 U/ml.
